Data set [1] deals with T1, Cytochrome P450 3A4 (Homo sapiens, UniProt P08684). The data set can be described thus: Inhibition of CYP3A4 (unknown origin) using testosterone as substrate pretreated with NADPH. It counts as ADME.
Data set [2] concerns the target T1, Cytochrome P450 3A4. The data set can be described thus: Inhibition of CYP3A4 (unknown origin) using testosterone as substrate in presence of NADPH. It counts as ADME.
Another data set deals with CYP3A4 (Homo sapiens, UniProt P08684). Nature of the data set: Ratio of IC50 for CYP3A4 (unknown origin) co-incubated with NADPH to IC50 for CYP3A4 (unknown origin) pretreated with NADPH. The note with it: read-out: Ratio IC50.
Sequence of CYP3A4 (P08684 whole entry): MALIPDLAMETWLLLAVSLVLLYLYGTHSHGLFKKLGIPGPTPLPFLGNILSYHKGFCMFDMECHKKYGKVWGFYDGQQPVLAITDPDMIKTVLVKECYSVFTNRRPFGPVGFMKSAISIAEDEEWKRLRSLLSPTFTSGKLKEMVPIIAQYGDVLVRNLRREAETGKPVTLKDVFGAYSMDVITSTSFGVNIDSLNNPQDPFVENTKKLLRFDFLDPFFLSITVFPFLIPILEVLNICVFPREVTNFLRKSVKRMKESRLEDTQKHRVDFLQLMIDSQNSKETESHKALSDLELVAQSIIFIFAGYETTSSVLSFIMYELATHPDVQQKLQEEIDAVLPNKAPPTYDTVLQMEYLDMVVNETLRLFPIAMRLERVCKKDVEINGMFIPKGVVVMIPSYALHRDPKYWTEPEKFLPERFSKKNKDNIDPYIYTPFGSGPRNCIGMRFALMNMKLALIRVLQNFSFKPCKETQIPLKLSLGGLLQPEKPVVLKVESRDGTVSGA
Data set [3] concerns the target Tumour suppressor p53/oncoprotein Mdm2 (Homo sapiens, UniProt Q00987). Nature of the data set: Inhibition of HDM2-p53 (unknown origin) protein-protein interaction by fluorescence polarization peptide displacement assay. In general terms: In fluorescence polarisation assays a small probe gives low polarisation when free and higher when bound to something large.

T1 sequence (P08684 whole entry): as above
Sequence of Tumour suppressor p53/oncoprotein Mdm2 (P04637 whole entry): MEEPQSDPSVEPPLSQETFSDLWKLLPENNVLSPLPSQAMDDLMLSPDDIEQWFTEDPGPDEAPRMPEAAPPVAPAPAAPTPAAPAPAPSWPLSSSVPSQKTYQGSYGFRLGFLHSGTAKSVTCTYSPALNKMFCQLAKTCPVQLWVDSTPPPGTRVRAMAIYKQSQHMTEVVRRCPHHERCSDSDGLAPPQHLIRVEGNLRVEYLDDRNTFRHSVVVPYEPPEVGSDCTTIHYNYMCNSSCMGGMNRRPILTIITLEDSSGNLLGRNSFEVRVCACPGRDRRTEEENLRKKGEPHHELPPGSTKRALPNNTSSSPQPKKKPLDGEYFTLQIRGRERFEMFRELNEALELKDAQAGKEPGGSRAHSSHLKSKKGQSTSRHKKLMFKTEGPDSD
Sequence of Tumour suppressor p53/oncoprotein Mdm2 (Q00987 whole entry): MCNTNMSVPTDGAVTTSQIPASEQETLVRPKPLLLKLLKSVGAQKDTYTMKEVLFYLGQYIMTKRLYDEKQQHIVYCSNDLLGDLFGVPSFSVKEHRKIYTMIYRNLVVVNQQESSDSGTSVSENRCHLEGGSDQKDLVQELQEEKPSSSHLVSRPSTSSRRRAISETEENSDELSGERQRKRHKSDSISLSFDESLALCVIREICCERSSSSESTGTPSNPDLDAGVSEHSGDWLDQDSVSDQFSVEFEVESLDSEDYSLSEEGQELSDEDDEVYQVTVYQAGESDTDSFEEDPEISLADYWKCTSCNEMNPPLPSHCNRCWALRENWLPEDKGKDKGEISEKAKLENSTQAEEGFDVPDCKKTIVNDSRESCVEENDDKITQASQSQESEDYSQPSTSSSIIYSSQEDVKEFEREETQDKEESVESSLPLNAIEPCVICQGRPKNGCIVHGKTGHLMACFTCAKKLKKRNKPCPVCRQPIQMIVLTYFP

Usually IC50 stands for the concentration at which inhibition is half-maximal. Consider `CCC[C@H]1N(C(=O)c2cnccc2C(F)(F)F)CCC[C@@]1(Oc1csc(C(F)(F)F)c1)C(=O)N1CCN(c2ccccc2OCCCC(=O)O)CC1`, for which the results for the IC50 on Cytochrome P450 3A4 [1] and on Cytochrome P450 3A4 [2] were 900 nM and 20000 nM, respectively. Also, the IC50 shift at CYP3A4 was 23.
As to `CCC[C@H]1N(C(=O)c2cnccc2C(F)(F)F)CCC[C@@]1(Oc1csc(C(F)(F)F)c1)C(=O)N1CCN(c2ccccc2OCCO)CC1`, the values for the IC50 (at Cytochrome P450 3A4 [1]; at Cytochrome P450 3A4 [2]; in data set [3]) were 300 nM, 6600 nM and 15 nM, respectively.
Take `CCC[C@H]1N(C(=O)c2cccnc2)CCC[C@@]1(Oc1csc(C(F)(F)F)c1)C(=O)N1CCN(c2ccccc2OCCO)CC1`: the IC50 in data set [3] was determined as 1770 nM.
Same read-out and setting: in the case of `CCC[C@H]1N(C(=O)c2ccncc2C(F)(F)F)CCC[C@@]1(Oc1csc(C(F)(F)F)c1)C(=O)N1CCN(c2ccccc2OCCO)CC1` it was 66 nM.
As for `C=CCOc1nccc(C(F)(F)F)c1C(=O)N1CCC[C@@](Oc2csc(C(F)(F)F)c2)(C(=O)N2CCN(c3ccccc3OCCO)CC2)[C@H]1CCC`, the 50% inhibitory concentration (IC50) on Cytochrome P450 3A4 [1] turned out to be 5700 nM; at Cytochrome P450 3A4 [2] it was 50000 nM; in data set [3], 28 nM. The IC50 shift at CYP3A4 was determined as 9.
Turning to `CCC[C@H]1N(C(=O)c2c(C(F)(F)F)ccc[n+]2[O-])CCC[C@@]1(Oc1csc(C(F)(F)F)c1)C(=O)N1CCN(c2ccccc2OCCO)CC1`, the IC50 amounted to 1900 nM at Cytochrome P450 3A4 [1], 50000 nM on Cytochrome P450 3A4 [2] and 22 nM in data set [3]. The IC50 shift on CYP3A4 came to 26.
For `CCC[C@H]1N(C(=O)c2c(C(F)(F)F)ccnc2O)CCC[C@@]1(Oc1csc(C(F)(F)F)c1)C(=O)N1CCN(c2ccccc2OCCCC(=O)O)CC1` the same measures were 50000 nM, 50000 nM, 11 nM and 1.
For the molecule `CCC[C@H]1N(C(=O)c2cc(F)ccc2C(F)(F)F)CCC[C@@]1(Oc1csc(C(F)(F)F)c1)C(=O)N1CCN(c2ccccc2OCCO)CC1`, the figures for the IC50 (at Cytochrome P450 3A4 [1]; at Cytochrome P450 3A4 [2]; in data set [3]) were 600 nM, 50000 nM and 34 nM, respectively. Besides, the IC50 shift at CYP3A4 turned out to be 90.
With `CCC[C@H]1N(C(=O)c2c(C(F)(F)F)ccnc2OCCO)CCC[C@@]1(Oc1csc(C(F)(F)F)c1)C(=O)N1CCN(c2ccccc2OCCO)CC1`, the half-inhibitory concentration (IC50) on Cytochrome P450 3A4 [1] was determined as 1500 nM; at Cytochrome P450 3A4 [2], 50000 nM; in data set [3], 103 nM. Moreover, at CYP3A4, the IC50 shift was found to be 33.
The molecule `CCC[C@H]1N(C(=O)c2c(N)cccc2C(F)(F)F)CCC[C@@]1(Oc1csc(C(F)(F)F)c1)C(=O)N1CCN(c2ccccc2OCCO)CC1` showed an IC50 in data set [3] of 6800 nM.
Same read-out and setting: then `CCC[C@H]1N(C(=O)c2cccnc2C(F)(F)F)CCC[C@@]1(Oc1csc(C(F)(F)F)c1)C(=O)N1CCN(c2ccccc2OCCO)CC1`, with 117 nM.
On to `CCC[C@H]1N(C(=O)c2c(C(F)(F)F)ccnc2OCCN(C)C)CCC[C@@]1(Oc1csc(C(F)(F)F)c1)C(=O)N1CCN(c2ccccc2OCCO)CC1`, for which the IC50 on Cytochrome P450 3A4 [1] turned out to be 2000 nM; on Cytochrome P450 3A4 [2] it was 20000 nM; in data set [3], 10 nM. Also, the IC50 shift on CYP3A4 was determined as 10.
Taken in the same sequence, the figures for `CCC[C@H]1N(C(=O)c2cnccc2C)CCC[C@@]1(Oc1csc(C(F)(F)F)c1)C(=O)N1CCN(c2ccccc2OCCO)CC1` were 1200 nM, 6900 nM, 34 nM and 6.
Taken in the same sequence, the figures for `CCC[C@H]1N(C(=O)c2c(F)cccc2C(F)(F)F)CCC[C@@]1(Oc1csc(C(F)(F)F)c1)C(=O)N1CCN(c2ccccc2OCCO)CC1` were 400 nM, 50000 nM, 65 nM and 126.
Taken in the same sequence, the figures for `CCC[C@H]1N(C(=O)c2cnccc2C(F)(F)F)CCC[C@@]1(Oc1csc(C(F)(F)F)c1)C(=O)N1CCN(c2ccccc2OC)CC1` were 300 nM, 10000 nM, 30 nM and 33.
On to `C=CCNc1nccc(C(F)(F)F)c1C(=O)N1CCC[C@@](Oc2csc(C(F)(F)F)c2)(C(=O)N2CCN(c3ccccc3OCCO)CC2)[C@H]1CCC`, for which the IC50 in data set [3] was found to be 1000 nM.
Same read-out and setting: in the case of `CCC[C@H]1N(C(=O)c2c(C(F)(F)F)ccnc2OCC(=O)NC)CCC[C@@]1(Oc1csc(C(F)(F)F)c1)C(=O)N1CCN(c2ccccc2OCCO)CC1` it was 246 nM.
For the molecule `CCC[C@H]1N(C(=O)c2c(C(F)(F)F)ccnc2O)CCC[C@@]1(Oc1csc(C(F)(F)F)c1)C(=O)N1CCN(c2ccccc2OCCO)CC1`, the IC50 was determined as 30000 nM at Cytochrome P450 3A4 [1], 30000 nM at Cytochrome P450 3A4 [2] and 44 nM in data set [3]. Also, the IC50 shift on CYP3A4 turned out to be 1.
For the molecule `CCC[C@H]1N(C(=O)c2ncccc2C(F)(F)F)CCC[C@@]1(Oc1csc(C(F)(F)F)c1)C(=O)N1CCN(c2ccccc2OCCO)CC1`, the IC50 at Cytochrome P450 3A4 [1] turned out to be 200 nM; at Cytochrome P450 3A4 [2] it was 35100 nM; in data set [3], 7 nM. In addition, on CYP3A4, the IC50 shift came to 160.
For `CCC[C@H]1N(C(=O)c2c(C(F)(F)F)ccnc2O)CCC[C@@]1(Oc1csc(C(F)(F)F)c1)C(=O)N1CCN(c2ccccc2OC)CC1` the same measures were 9200 nM, 20000 nM, 32 nM and 2.
For `CCC[C@H]1N(C(=O)c2c(C(F)(F)F)ccnc2OCC(=O)O)CCC[C@@]1(Oc1csc(C(F)(F)F)c1)C(=O)N1CCN(c2ccccc2OCCO)CC1` the same measures were 4400 nM, 20000 nM, 25 nM and 5.

(Values after ChEMBL document CHEMBL5131494, “Phe19 modification of HDM2-p53 PPI inhibitors to alleviate CYP3A4 metabolism/mechanism-based inhibition liability” (Bioorg Med Chem Lett, 2022).)
